Assay results published in patent US5070089A, “Therapeutic agent for liver disease and piperazine derivatives” (Nippon Chemiphar Co., Ltd., priority 1988, dated 1991).
Read-outs that look alike come from different tables or passages of the source.

Assays:
[1] = Toxicity by oral administration; format: in vivo; conditions: even at 1,600 mg/kg by oral administration
Protocol: Further, it has been experimentally confirmed that all of piperazine derivatives of the invention tested for toxicity (Compound Nos. 4, 5, 22, 23, 32, 33, 38, 75 and 113 indicated in Tables 1 and 2) cause no death even at 1,600 mg/kg by oral administration.

[2] = test system: acute liver disease caused by CCl4 (Wister-strain rat); test: Preventive action on deviation of GOT value and GPT value in vivo using model of acute liver disease caused by CCl4
Protocol: CCl4 in olive oil (concentration: 50%) was orally administered to a Wister-strain rat (body weight: 170-180 g) fasted for 24 hrs., at a dose of 1 ml/kg, to cause acute liver disease. […] For control group, 1.0% methylcellulose (MC) was administered in place of the piperazine derivative. For normal group, a simple olive oil was administered in place of the CCl4 -containing olive oil. For the administration, the piperazine derivative was employed in the form of a dispersion in aqueous MC solution (concentration: 1.0%). At 24 hours after the administration of CCl4, the rat was abdominally sectioned under ether anesthesia. From the abrominal large vein, a blood was collected. The collected blood was subjected to centrifugal separation at 3,000 r.p.m. for 10 min to obtain its plasma. […] The results are set forth in Table 4 in terms of a ratio (%) of suppression (prevention) of GOT or GPT. In Table 4, "***" means 90-100%, "**" means 60-90%, and "*" means 30-60%. The ratio of suppression is calculated according to the following equation. [formula]

[3] = test system: lipid peroxidation in rat hepatocyte; test: Inhibitory action on lipid peroxidation (rat hepatocyte, TBA color formation, absorbance at 530 nm); format: biochemical; conditions: 37° C., 1 hour; for Inhibition ratio (at Final Concentration of Tested Compound) 10^-4 M: final concentration 10^-4 M, 100 µM; for Inhibition ratio (at Final Concentration of Tested Compound) 10^-5 M: final concentration 10^-5 M, 10 µM
Protocol: A hepatocyte was isolated from rat according to the method of Ui et al (Hiroshi Oka and Tadao Ui: "Isolated Cells--Experimental and Application",page 91). The determination of lipid peroxidation was performed using a died hepatocyte which had been frozen at -85° C. and stored at the temperature and which was melted when the experimental was done. […] The centrifugal tube was shaken at 37° C. for 1 hour for performing a reaction, and then placed into an ice-water bath to terminate the reaction. […] The centrifugal tube was taken out of the ice-water bath and placed in a water bath (kept at 95°-98° C.). The content of the tube was heated in the bath for 1 hour for developing color-formation. After the heating was complete, the content of the tube was cooled and subjected to centrifugal separation. The inhibitory action on lipid peroxidation of the sample was determined by measuring absorbance at 530 nm. The determined inhibitory action is expressed inhibition ratio by percent (%) calculated by the following equation: [formula] In Table 3, the number of the tested compound corresponds to the identical number set forth in Tables 1 and 2 for identifying the compounds of the invention.

[4] = Rattus norvegicus, po, 24 h, read-out: ratio (%) of suppression (prevention) of GOT
[5] = Rattus norvegicus, po, 24 h, read-out: ratio (%) of suppression (prevention) of GPT
[6] = rat, 30 mg/kg, 3 hour before oral CCl4, plasma GOT at 24 hours after CCl4, read-out: ratio (%) of suppression (prevention) of GOT
[7] = rat, 30 mg/kg, 3 hour before oral CCl4, plasma GPT at 24 hours after CCl4, read-out: ratio (%) of suppression (prevention) of GPT

COc1ccccc1CN1CCN(C(=S)SC)CC1 [Compound 5, Methyl 4-(2-methoxybenzyl)-1-piperazinecarbodithioate]
death in toxicity test [1]: no death | inhibition in vivo at 30 mg/kg [2, 4]: 90 to 100% | inhibition in vivo at 30 mg/kg [2, 5]: 90 to 100%

CSC(=S)N1CCN(Cc2ccccc2N)CC1 [Compound 11, Methyl 4-(2-aminobenzyl)-1-piperazinecarbodithioate]
inhibition in vivo at 30 mg/kg [2, 6]: 90 to 100% | inhibition in vivo at 30 mg/kg [2, 7]: 90 to 100% | Inhibition ratio (at Final Concentration of Tested Compound) 10^-4 M [3]: 98.6% | Inhibition ratio (at Final Concentration of Tested Compound) 10^-5 M [3]: 95.5%

CSC(=S)N1CCN(Cc2ccccc2N(C)C)CC1 [Compound 13, Methyl 4-(2-dimethylaminobenzyl)-1-piperazinecarbodithioate]
inhibition in vivo at 30 mg/kg [2, 6]: 30 to 60% | inhibition in vivo at 30 mg/kg [2, 7]: 30 to 60% | Inhibition ratio (at Final Concentration of Tested Compound) 10^-4 M [3]: 98.9% | Inhibition ratio (at Final Concentration of Tested Compound) 10^-5 M [3]: 95.4%

CSC(=S)N1CCN(Cc2cc(O)ccc2O)CC1.Cl [Compound 16, Methyl 4-(2,5-dihydroxybenzyl)-1-piperazinecarbodithioate hydrochloride]
inhibition in vivo at 30 mg/kg [2, 6]: 90 to 100% | inhibition in vivo at 30 mg/kg [2, 7]: 90 to 100% | Inhibition ratio (at Final Concentration of Tested Compound) 10^-4 M [3]: 73.4% | Inhibition ratio (at Final Concentration of Tested Compound) 10^-5 M [3]: 69.4%

COc1ccc(CN2CCN(C(=S)SC)CC2)c(OC)c1OC [Compound 33, Methyl 4-(2,3,4-trimethoxybenzyl)-1-piperazinecarbodithioate]
death in toxicity test [1]: no death | inhibition in vivo at 30 mg/kg [2, 4]: 90 to 100% | inhibition in vivo at 30 mg/kg [2, 5]: 60 to 90%

COc1cc(C=O)cc(CN2CCN(C(=S)SC)CC2)c1O [Compound 38, Methyl 4-(5-formyl-2-hydroxy-3-methoxybenzyl)-1-piperazinecarbodithioate]
death in toxicity test [1]: no death | inhibition in vivo at 30 mg/kg [2, 4]: 60 to 90% | inhibition in vivo at 30 mg/kg [2, 5]: 60 to 90%

CSC(=S)N1CCN(Cc2cc(O)c(O)c(O)c2)CC1 [Compound 40, Methyl 4-(3,4,5-trihydroxybenzyl)-1-piperazinecarbodithioate]
Inhibition ratio (at Final Concentration of Tested Compound) 10^-4 M [3]: 92.6%

CSC(=S)N1CCN(Cc2cc(OC(C)=O)c(OC(C)=O)c(OC(C)=O)c2)CC1 [Compound 42, Methyl 4-(3,4,5-triacetoxybenzyl)-1-piperazinecarbodithioate]
Inhibition ratio (at Final Concentration of Tested Compound) 10^-4 M [3]: 71.6% | Inhibition ratio (at Final Concentration of Tested Compound) 10^-5 M [3]: 71.6%

CCCOC(=O)c1cc(O)c(O)c(O)c1CN1CCN(C(=S)SC)CC1 [Compound 44, Methyl 4-(6-propyloxycarbonyl-2,3,4-trihydroxybenzyl)-1-piperazinecarbodithioate]
inhibition in vivo at 30 mg/kg [2, 6]: 90 to 100% | inhibition in vivo at 30 mg/kg [2, 7]: 60 to 90% | Inhibition ratio (at Final Concentration of Tested Compound) 10^-4 M [3]: 96.6% | Inhibition ratio (at Final Concentration of Tested Compound) 10^-5 M [3]: 96.0%

COc1c(O)c(C)c(CN2CCN(C(=S)SC)CC2)c(O)c1OC [Compound 47, Methyl 4-(2,5-dihydroxy-3,4-dimethoxy-6-methylbenzyl)-1-piperazinecarbodithioate]
inhibition in vivo at 30 mg/kg [2, 6]: 90 to 100% | inhibition in vivo at 30 mg/kg [2, 7]: 90 to 100% | Inhibition ratio (at Final Concentration of Tested Compound) 10^-4 M [3]: 100% | Inhibition ratio (at Final Concentration of Tested Compound) 10^-5 M [3]: 56.1%

COc1c(OC(C)=O)c(C)c(CN2CCN(C(=S)SC)CC2)c(OC(C)=O)c1OC [Compound 48, Methyl 4-(2,5-diacetoxy-3,4-dimethoxy-6-methylbenzyl)-1-piperazinecarbodithioate]
inhibition in vivo at 30 mg/kg [2, 6]: 60 to 90% | inhibition in vivo at 30 mg/kg [2, 7]: 60 to 90% | Inhibition ratio (at Final Concentration of Tested Compound) 10^-4 M [3]: 96.2% | Inhibition ratio (at Final Concentration of Tested Compound) 10^-5 M [3]: 97.5%

CSC(=S)N1CCN(CCc2ccc(O)c(O)c2O)CC1 [Compound 68, Methyl 4-{2-(2,3,4-trihydroxyphenyl)ethyl}-1-piperazinecarbodithioate]
inhibition in vivo at 30 mg/kg [2, 6]: 60 to 90% | inhibition in vivo at 30 mg/kg [2, 7]: 60 to 90%

COc1ccc(C(=O)CN2CCN(C(=S)SC)CC2)c(OC)c1OC [Compound 71, Methyl 4-{2-(2,3,4-trimethoxyphenyl)-2-oxo}ethyl-1-piperazinecarbodithioate]
inhibition in vivo at 30 mg/kg [2, 6]: 60 to 90% | inhibition in vivo at 30 mg/kg [2, 7]: 30 to 60%

CSC(=S)N1CCN(CC(=O)c2ccc(O)c(O)c2)CC1 [Compound 72, Methyl 4-{2-(3,4-dihydroxyphenyl)-2-oxo}ethyl-1-piperazinecarbodithioate]
Inhibition ratio (at Final Concentration of Tested Compound) 10^-4 M [3]: 74.8% | Inhibition ratio (at Final Concentration of Tested Compound) 10^-5 M [3]: 58.2%

CSC(=S)N1CCN(CC(O)c2ccc(O)c(O)c2)CC1 (stereo not drawn) [Compound 73, Methyl 4-{2-(3,4-dihydroxyphenyl)-2-hydroxy}ethyl-1-piperazinecarbodithioate]
inhibition in vivo at 30 mg/kg [2, 6]: 60 to 90% | inhibition in vivo at 30 mg/kg [2, 7]: 60 to 90% | Inhibition ratio (at Final Concentration of Tested Compound) 10^-4 M [3]: 88.4% | Inhibition ratio (at Final Concentration of Tested Compound) 10^-5 M [3]: 44.5%

COc1ccc(CC(=O)N2CCN(C(=S)SC)CC2)c(OC)c1OC [Compound 75, Methyl 4-(2,3,4-trimethoxyphenylacetyl)-1-piperazinecarbodithioate]
death in toxicity test [1]: no death | inhibition in vivo at 30 mg/kg [2, 4]: 60 to 90% | inhibition in vivo at 30 mg/kg [2, 5]: 60 to 90%

COc1cc(CN2CCN(C(=S)S)CC2)cc(OC)c1OC [Compound 89, Sodium 4-(3,4-5-trimethoxybenzyl)-1-piperazinecarbodithioate]
Inhibition ratio (at Final Concentration of Tested Compound) 10^-4 M ([3]; 60 min): 90.2%

COc1ccc(CN2CCN(C(=S)S)CC2)c(OC)c1OC [Compound 93, 4-(2,3,4-Trimethoxybenzyl)-1-piperazinecarbodithioic acid]
inhibition in vivo at 30 mg/kg [2, 6]: 90 to 100% | inhibition in vivo at 30 mg/kg [2, 7]: 90 to 100%

Oc1ccc(CN2CCN(C(=S)SCc3ccccc3)CC2)c(O)c1O [Compound 100, Benzyl 4-(2,3,4-trihydroxybenzyl)-1-piperazinecarbodithioate]
inhibition in vivo at 30 mg/kg [2, 7]: 30 to 60%

CSC(=S)N1CCN(Cc2c(O)c(O)cc3ccc(=O)oc23)CC1 [Compound 106, Methyl 4-(6,7-dihydroxycumarin-8-yl)methyl-1-piperazinecarbodithioate]
Inhibition ratio (at Final Concentration of Tested Compound) 10^-4 M [3]: 89.0% | Inhibition ratio (at Final Concentration of Tested Compound) 10^-5 M [3]: 88.1%

COc1cc(CN2CCN(C(=S)S)CC2)cc(OC)c1OC [Compound 108, 4-(3,4,5-Trimethoxybenzyl)-1-piperazinecarbodithioic acid]
Inhibition ratio (at Final Concentration of Tested Compound) 10^-4 M ([3]; 60 min): 72.6% | Inhibition ratio (at Final Concentration of Tested Compound) 10^-5 M [3]: 39.2%

Oc1cc(CN2CCN(C(=S)S)CC2)cc(O)c1O [Compound 109, 4-(3,4,5-Trihydroxybenzyl)-1-piperazinecarbodithioic acid]
Inhibition ratio (at Final Concentration of Tested Compound) 10^-4 M [3]: 74.9% | Inhibition ratio (at Final Concentration of Tested Compound) 10^-5 M [3]: 24.2%

CSC(=S)N1CCN(CC2=CC(=O)C=CC2=O)CC1 [Compound 110, Methyl 4-(1,4-benzoquinonylmethyl)-1-piperazinecarbodithioate]
inhibition in vivo at 30 mg/kg [2, 6]: 90 to 100% | inhibition in vivo at 30 mg/kg [2, 7]: 90 to 100%

CSC(=S)N1CCN(CC2=C(C)C(=O)C(C)=C(C)C2=O)CC1 [Compound 113, Methyl 4-(3,5,6-trimethyl-1,4-benzoquinonylmethyl)-1-piperazinecarbodithioate]
death in toxicity test [1]: no death | inhibition in vivo at 30 mg/kg [2, 4]: 90 to 100% | inhibition in vivo at 30 mg/kg [2, 5]: 60 to 90%

COC1=C(OC)C(=O)C(CN2CCN(C(=S)SC)CC2)=C(C)C1=O [Compound 118, Methyl 4-(5,6-dimethoxy-3-methyl-1,4-benzoquinonylmethyl)-1-piperazinecarbodithioate]
inhibition in vivo at 30 mg/kg [2, 6]: 60 to 90% | inhibition in vivo at 30 mg/kg [2, 7]: 30 to 60%
